# Article PMC7591571, “Identification of a juvenile-hormone signaling inhibitor via high-throughput screening of a chemical library” (Scientific Reports, 2020)
# Experiments:
# [1] = tested on: T1, JH receptor, methoprene-tolerant protein (Met) / SRC, endogenous in BmN_JF&AR cells; test: kJHRE luciferase reporter assay in stable BmN_JF&AR cells; type: cell-based; conditions: agonist, 25 °C, 20 h, pathway read-out
# T1 construct: gene Met1; endogenous receptor of BmN cells; receptor not overexpressed; Met paralogue not specified
# [2] = tested on: T1, JH receptor, methoprene-tolerant protein (Met) / SRC, endogenous in BmN_JF&AR cells; test: as above; type: cell-based; conditions: inhibition of 1 nM JH I response; 25 °C; 20 h; competitive antagonist-like; pathway read-out, direct binding to receptor not demonstrated; read-out: EC50 (the source's name)
Structure (SMILES),EC50 [1],IC50 [2]
CC/C(=C\CC/C(C)=C/C(=O)OC)CC[C@H]1O[C@@]1(C)CC [JH I],0.37 nM,–
"CC(C)(C)c1ccc(OCCn2cncn2)c(Cl)c1 [JHSI48, N-[2-(4-tert-butyl-2-chlorophenoxy)ethyl]-1H-1,2,4-triazole]",–,320 nM
